Results taken from the supplement of paper PMC10307832.

Key:
Test in all cases: relative viability (nuclei count vs DMSO), 5 days (fraction); higher = more cells survive
[1] = compound: CCC1=CN=CN=C1N2CCN(CC2)CC3=NC4=C(N3)C=C(C=C4)C(F)(F)F + C[C@]1(O)C[C@@H](c2nc(-c3ccc4ccc(-c5ccccc5)nc4c3)c3c(N)nccn32)C1 [Linsitinib] (partner 1 µM)
Outline: (§1)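 Relative viability equals treated-well nuclei counts divided by vehicle-well nuclei counts. Counts came from 4× images of lung cancer cell lines grown in 1536-well plates for 5 days after pin-tool dosing on the day after seeding. Dosing used one drug alone or a fixed anchor-drug dose plus five library-drug doses (not always all listed) in √10 steps, and values are medians of duplicate plates.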

[2] = compound: CCC1=CN=CN=C1N2CCN(CC2)CC3=NC4=C(N3)C=C(C=C4)C(F)(F)F + CC(C)C[C@H](NC(=O)[C@H](Cc1ccccc1)NC(=O)c1cnccn1)B(O)O [Bortezomib] (partner 0.002 µM)
Outline: as §1

[3] = compound: N=C1NC(=O)/C(=C/c2ccc(O)cc2)S1 [Mirin] + Cc1nc(Nc2ncc(C(=O)Nc3c(C)cccc3Cl)s2)cc(N2CCN(CCO)CC2)n1 [Dasatinib] (partner 0.075 µM)
Outline: as §1

[4] = compound: CCC1=CN=CN=C1N2CCN(CC2)CC3=NC4=C(N3)C=C(C=C4)C(F)(F)F + N=C(N)NC(=N)NCCc1ccccc1 [Phenformin] (partner 250 µM)
Outline: as §1

Cell Line | relative viability ([1]; first compound 0.04 µM) | relative viability ([1]; first compound 0.1265 µM) | relative viability ([1]; first compound 0.4 µM) | relative viability ([1]; first compound 1.265 µM) | relative viability ([1]; first compound 4 µM) | relative viability ([2]; first compound 0.04 µM) | relative viability ([2]; first compound 0.1265 µM) | relative viability ([2]; first compound 0.4 µM) | relative viability ([2]; first compound 1.265 µM) | relative viability ([2]; first compound 4 µM) | relative viability ([3]; first compound 0.25 µM) | relative viability ([3]; first compound 0.7906 µM) | relative viability ([3]; first compound 2.5 µM) | relative viability ([3]; first compound 7.906 µM) | relative viability ([3]; first compound 25 µM) | relative viability ([4]; first compound 0.04 µM) | relative viability ([4]; first compound 0.1265 µM) | relative viability ([4]; first compound 0.4 µM) | relative viability ([4]; first compound 1.265 µM) | relative viability ([4]; first compound 4 µM)
LCLC-103H | 1.11 | 1.13 | 0.999 | 1.17 | 1.2 | 1.04 | 0.959 | 1.07 | 1.07 | 1.18 | 0.44 | 0.469 | 0.491 | 0.348 | 0.422 | 0.303 | 0.294 | 0.322 | 0.289 | 0.348
NCI-H2347 | 0.961 | 0.926 | 0.944 | 0.942 | 1.09 | 1.07 | 0.92 | 0.724 |  | 1.04 | 0.336 | 0.316 | 0.344 | 0.287 | 0.273 | 0.314 | 0.397 | 0.498 | 0.243 | 0.304
NCI-H1792 | 0.522 | 0.543 | 0.497 | 0.424 | 0.511 | 0.885 | 0.782 | 0.926 | 1.04 | 1 | 0.768 | 0.86 | 0.777 |  | 0.632 | 0.382 | 0.259 | 0.162 |  | 0.222
NCI-H647 | 1.33 | 1.18 |  | 1.24 | 1.31 | 1.3 | 0.938 |  | 0.884 | 0.955 | 0.152 | 0.177 | 0.216 | 0.174 | 0.132 | 0.555 | 0.589 | 0.518 | 0.461 | 0.626
NCI-H1563 | 1.27 | 1.24 | 1.27 | 1.18 | 1.1 | 0.829 | 1 | 0.838 | 0.656 | 0.976 | 0.536 | 0.471 | 0.481 | 0.42 | 0.428 | 0.713 | 0.639 | 0.662 | 0.661 | 0.689
NCI-H520 | 0.908 | 0.93 | 0.886 | 0.773 | 0.861 | 0.699 | 0.48 | 0.642 | 0.534 | 0.472 | 0.192 | 0.164 | 0.282 | 0.172 | 0.249 | 0.553 | 0.648 | 0.38 |  | 0.46
HCC-366 | 0.907 | 0.595 | 0.525 |  | 0.661 | 1 | 1.06 | 1.05 |  | 1.01 | 0.677 |  | 0.624 | 0.588 | 0.486 | 0.539 | 0.64 | 0.57 | 0.432 | 0.536
NCI-H2085 | 0.911 | 0.787 | 0.982 | 0.823 | 0.793 | 0.927 | 0.949 | 1.13 | 1.03 | 1.04 | 0.229 | 0.207 | 0.28 | 0.252 | 0.237 | 0.724 | 0.78 | 0.663 | 0.522 | 0.735
PC-3 [JPC-3] | 0.972 | 0.882 | 0.969 | 0.906 | 0.911 | 0.838 | 0.765 | 0.757 | 0.807 | 0.854 | 1.03 | 0.979 | 1.04 | 0.981 | 1.08 | 0.456 | 0.456 | 0.457 | 0.505 | 0.479
HOP-62 | 1.27 | 1.02 | 0.983 | 0.87 | 0.77 | 0.869 | 0.819 | 0.648 | 0.677 | 0.947 | 0.699 | 0.756 | 0.743 | 0.671 | 0.56 | 0.47 | 0.664 | 0.655 | 0.653 | 0.616
NCI-H2126 | 0.666 | 0.696 | 0.725 | 0.614 | 0.733 | 1.05 | 1.08 | 1.19 | 1.16 | 1.14 | 0.631 | 0.58 | 0.601 | 0.517 | 0.514 | 0.524 | 0.533 | 0.521 | 0.515 | 0.581
NCI-H2087 | 1.08 | 1.01 | 1.08 | 0.795 | 0.754 | 0.859 | 0.805 | 0.824 | 0.65 | 0.766 | 1.06 | 0.869 | 0.752 | 0.958 | 0.677 | 0.499 | 0.465 | 0.448 | 0.467 | 0.496
RERF-LC-KJ | 0.814 | 0.827 | 0.849 | 0.84 | 0.772 | 1.04 | 1.01 | 1.11 | 0.941 | 1.11 | 0.958 | 0.831 | 0.843 | 0.685 | 0.688 | 0.407 | 0.382 | 0.467 | 0.366 | 0.41
H3255 | 0.937 | 0.956 | 0.904 | 0.825 | 0.772 | 0.671 | 0.849 | 0.739 | 0.816 | 0.756 | 0.383 | 0.315 | 0.347 | 0.275 | 0.381 | 0.398 | 0.42 | 0.347 | 0.352 | 0.392
EMC-BAC-2 | 0.816 | 0.771 | 0.808 | 0.728 | 0.791 | 1.07 | 1.01 | 1.05 | 0.917 | 1.15 | 0.328 | 0.324 | 0.349 | 0.271 | 0.249 | 0.515 | 0.506 | 0.523 |  | 0.557
CAL-12T | 0.744 | 0.771 | 0.731 | 0.754 | 0.901 |  | 0.997 | 0.888 | 1.06 | 1.07 | 0.489 |  | 0.503 | 0.347 | 0.28 | 0.551 | 0.616 | 0.626 | 0.548 | 0.643
NCI-H661 | 0.711 | 0.629 | 0.622 |  | 0.483 | 0.845 | 0.809 | 0.696 |  | 0.782 | 0.985 | 0.737 | 0.884 | 0.734 | 0.697 | 0.28 | 0.259 | 0.301 | 0.263 | 0.313
NCI-H1355 | 0.852 | 0.745 | 0.806 | 0.732 | 0.913 | 1.21 | 1.17 | 1.22 | 1.07 | 1.38 | 0.766 | 0.724 | 0.691 | 0.564 | 0.648 | 0.456 | 0.428 | 0.406 | 0.395 | 0.424
PC-14 | 0.918 | 0.896 | 0.965 | 0.931 | 0.982 | 0.938 | 0.815 | 0.856 | 0.848 | 0.935 | 0.243 | 0.248 | 0.26 |  | 0.295 | 0.463 | 0.472 | 0.561 | 0.669 | 0.567
NCI-H441 | 0.526 | 0.553 | 0.444 | 0.489 | 0.497 | 0.523 | 0.366 | 0.301 | 0.356 | 0.383 | 0.662 | 0.556 | 0.622 | 0.59 | 0.439 | 0.699 | 0.874 | 0.718 | 0.868 | 0.833
NCI-H727 | 0.246 | 0.183 | 0.495 |  | 0.299 | 0.998 | 0.689 | 0.876 |  | 0.744 | 0.345 | 0.285 | 0.337 | 0.4 | 0.256 | 0.505 | 0.541 | 0.439 |  | 0.671
NCI-H23 | 0.681 | 0.689 | 0.59 | 0.623 | 0.638 | 0.868 | 1.13 | 0.905 | 0.98 | 1.16 | 0.934 |  | 0.77 | 0.604 | 0.555 | 0.703 | 0.742 | 0.768 | 0.73 | 0.792
NCI-H596 | 1.14 | 1.08 | 1.09 | 1.06 | 1.02 | 1.03 | 1.11 | 0.846 | 0.946 | 1.15 | 0.643 | 0.596 | 0.559 | 0.525 | 0.569 | 0.729 | 0.66 | 0.67 |  | 0.79
NCI-H460 | 0.891 | 0.683 | 0.828 | 0.716 | 0.718 | 1.11 | 1.1 | 0.977 | 1.06 | 0.951 | 0.566 | 0.487 | 0.468 | 0.457 | 0.38 | 0.465 | 0.525 | 0.484 | 0.439 | 0.499
